According to patent US20060004043A1, “Indazole compounds and methods of use thereof” (priority 2003, published 2006):

Target: Rsk1 (Rattus norvegicus, UniProt Q63531)
Test: Rsk1(r) kinase assay, 33P-ATP filter binding
Format: biochemical
Conditions: compound at 3 μM; [ATP] = 10 μM
Protocol: The assays briefly described below in Examples 54-123 were carried out as described in Davies et al., Biochem. J., 351:95-105 (2000). All assays were carried out at 10 μM ATP unless otherwise noted.
All kinases are pre-diluted to a 10× working concentration prior to addition into the assay. The composition of the dilution buffer for each kinase is described below in Table 3.
In addition, the following abbreviations are used: h is human; r is rat; m is mouse; b is bovine; and y is yeast.
In a final reaction volume of 25 μl, Rsk1(r) (5-10 mU) is incubated with 8 mM MOPS pH 7.0, 0.2 mM EDTA, 30 μM […], 10 mM MgAcetate and [γ-^33P-ATP] (Specific activity approx. 500 cpm/pmol, concentration as required). The reaction is initiated by the addition of Mg^2+[γ-^33P-ATP]. After incubation for 40 minutes at room temperature, the reaction is stopped by the addition of 5 μl of a 3% phosphoric acid solution. 10 μl of the reaction is then spotted onto a P30 filtermat and washed three times for 5 minutes in 75 mM phosphoric acid and once in methanol prior to drying and scintillation counting.
Using the appropriate assay protocols as listed above, kinase inhibition data for Compounds 21 and 71 was determined for the following kinases: CDK1/cyclin B, CDK2/cyclin A, cSRC, Yes, MEK1, and Rsk1.

Rsk1, sequence (Q63531 whole entry): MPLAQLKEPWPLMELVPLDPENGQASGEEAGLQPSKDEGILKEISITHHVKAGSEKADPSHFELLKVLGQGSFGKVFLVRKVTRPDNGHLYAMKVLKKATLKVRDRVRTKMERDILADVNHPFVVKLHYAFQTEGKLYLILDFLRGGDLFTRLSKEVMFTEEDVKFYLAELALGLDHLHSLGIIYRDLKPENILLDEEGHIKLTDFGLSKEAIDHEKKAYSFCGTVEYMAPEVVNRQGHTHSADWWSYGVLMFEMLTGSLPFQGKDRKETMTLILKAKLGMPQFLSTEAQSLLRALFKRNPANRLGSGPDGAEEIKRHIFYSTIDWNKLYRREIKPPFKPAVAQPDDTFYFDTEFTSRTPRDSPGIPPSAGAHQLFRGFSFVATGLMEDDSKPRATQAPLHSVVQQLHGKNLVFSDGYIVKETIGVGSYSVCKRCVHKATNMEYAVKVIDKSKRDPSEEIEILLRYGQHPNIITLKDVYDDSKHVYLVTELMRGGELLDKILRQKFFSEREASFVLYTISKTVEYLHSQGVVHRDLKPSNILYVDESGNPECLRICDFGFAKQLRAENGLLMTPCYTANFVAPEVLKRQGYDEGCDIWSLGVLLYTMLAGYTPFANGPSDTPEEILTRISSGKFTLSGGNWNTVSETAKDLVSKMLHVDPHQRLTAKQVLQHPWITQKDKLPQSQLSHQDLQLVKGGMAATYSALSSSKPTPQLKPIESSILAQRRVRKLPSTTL

Row | Structure (SMILES) | Rsk1 (% control)
1 | COc1ccc2cc(-c3n[nH]c4ccc(-c5n[nH]c(CN6CCOCC6)n5)cc34)ccc2c1 [Compound 20] | 4
2 | CC(C)(C)Cc1nc(-c2ccc3[nH]nc(-c4ccc5cc(OCc6ccccn6)ccc5c4)c3c2)n[nH]1 [Compound 92] | 29
